# Experimental data from patent US20060247320A1, “Compounds for inhibiting KSP kinesin activity” (priority 2005, published 2006).
# Read-outs that look alike come from different tables or passages of the source.
# Target: T1, KSP motor domain (Homo sapiens, UniProt P52732)
# T1 sequence (P52732 18-359 limits assumed): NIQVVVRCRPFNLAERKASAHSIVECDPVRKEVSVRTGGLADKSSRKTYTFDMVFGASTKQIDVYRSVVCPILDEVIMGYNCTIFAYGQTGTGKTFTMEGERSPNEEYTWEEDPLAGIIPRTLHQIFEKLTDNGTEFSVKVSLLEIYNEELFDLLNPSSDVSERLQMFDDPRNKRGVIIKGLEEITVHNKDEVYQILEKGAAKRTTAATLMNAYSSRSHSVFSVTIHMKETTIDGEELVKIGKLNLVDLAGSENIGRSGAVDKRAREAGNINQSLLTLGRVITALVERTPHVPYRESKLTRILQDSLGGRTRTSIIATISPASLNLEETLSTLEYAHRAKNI
# Test: biochemical
# Conditions: read-out: IC50
# [1] = KSP inhibitory activity, end-point assay, class symbols (Table 1)
# [2] = exact IC50 values, end-point assay (Table 2)
Structure (SMILES),IC50 [1],IC50 [2]
"CC(C)(C)C1CCc2nc3sc(C(=O)NC(CN)c4cccc(NC(=O)c5cnccn5)c4)cc3cc2C1 (centres unmarked) [Example 227, 6-tert-Butyl-5,6,7,8-tetrahydrothieno[2,3-b]quinoline-2-carboxylic acid (2-amino-1-{3-[(pyrazine-2-carbonyl)amino]phenyl}ethyl)amide]",< 100 nM,21 nM
CC(C)(C)[C@@H]1CCc2nc3sc(C(=O)N[C@H](CN)c4cccc(NC(=O)c5cnc6ccccc6n5)c4)cc3cc2C1 [Example 228],< 100 nM,–
Cc1cc(C(=O)Nc2cccc([C@@H](CN)NC(=O)c3cc4cc5c(nc4s3)CC[C@@H](C(C)(C)C)C5)c2)no1 [Example 229],< 100 nM,–
Cc1onc(-c2ccccc2)c1C(=O)Nc1cccc([C@@H](CN)NC(=O)c2cc3cc4c(nc3s2)CC[C@@H](C(C)(C)C)C4)c1 [Example 230],100 to 1000 nM,–
"CC(C)(C)[C@@H]1CCc2nc3sc(C(=O)N[C@H](CN)c4cccc(NC(=O)c5ccno5)c4)cc3cc2C1 [Example 231, 6(R)-tert-butyl-5,6,7,8-tetrahydro-thieno[2,3-b]quinoline-2-carboxylic acid (2-amino-1(S)-{3-[(isoxazole-5-carbonyl)-amino]-phenyl}-ethyl)-amide]",< 100 nM,–
CC(C)(C)[C@@H]1CCc2nc3sc(C(=O)N[C@H](CN)c4cccc(NC(=O)c5ccon5)c4)cc3cc2C1 [Example 232],< 100 nM,–
Cc1oncc1C(=O)Nc1cccc([C@@H](CN)NC(=O)c2cc3cc4c(nc3s2)CC[C@@H](C(C)(C)C)C4)c1 [Example 233],< 100 nM,–
CC(C)(C)[C@@H]1CCc2nc3sc(C(=O)N[C@H](CN)c4cccc(NC(=O)c5cc(-c6ccccc6)on5)c4)cc3cc2C1 [Example 234],< 100 nM,–
CC(C)(C)[C@@H]1CCc2nc3sc(C(=O)N[C@H](CN)c4cccc(NC(=O)c5ccns5)c4)cc3cc2C1 [Example 235],< 100 nM,23 nM
CC(C)(C)[C@@H]1CCc2nc3sc(C(=O)N[C@H](CN)c4cccc(NC(=O)c5cc[nH]n5)c4)cc3cc2C1 [Example 236],< 100 nM,–
CC(C)(C)[C@@H]1CCc2nc3sc(C(=O)N[C@H](CN)c4cccc(NC(=O)c5cn[nH]c5)c4)cc3cc2C1 [Example 237],< 100 nM,10 nM
Cn1nccc1C(=O)Nc1cccc([C@@H](CN)NC(=O)c2cc3cc4c(nc3s2)CC[C@@H](C(C)(C)C)C4)c1 [Example 238],< 100 nM,–
Cn1ccc(C(=O)Nc2cccc([C@@H](CN)NC(=O)c3cc4cc5c(nc4s3)CC[C@@H](C(C)(C)C)C5)c2)n1 [Example 239],< 100 nM,–
Cn1cc(C(=O)Nc2cccc([C@@H](CN)NC(=O)c3cc4cc5c(nc4s3)CC[C@@H](C(C)(C)C)C5)c2)cn1 [Example 240],< 100 nM,–
CC(C)(C)[C@@H]1CCc2nc3sc(C(=O)N[C@H](CN)c4cccc(NC(=O)c5ccn(-c6ccccc6)n5)c4)cc3cc2C1 [Example 241],< 100 nM,–
Cc1cc(C(=O)Nc2cccc([C@@H](CN)NC(=O)c3cc4cc5c(nc4s3)CC[C@@H](C(C)(C)C)C5)c2)n[nH]1 [Example 242],< 100 nM,–
Cc1[nH]ncc1C(=O)Nc1cccc([C@@H](CN)NC(=O)c2cc3cc4c(nc3s2)CC[C@@H](C(C)(C)C)C4)c1 [Example 243],< 100 nM,–
Cc1cc(C(=O)Nc2cccc([C@@H](CN)NC(=O)c3cc4cc5c(nc4s3)CC[C@@H](C(C)(C)C)C5)c2)nn1C [Example 244],< 100 nM,–
Cn1ncc(C(=O)Nc2cccc([C@@H](CN)NC(=O)c3cc4cc5c(nc4s3)CC[C@@H](C(C)(C)C)C5)c2)c1C(F)(F)F [Example 245],< 100 nM,–

Structure (SMILES),IC50 [1],IC50 [2]
Cn1nc(C(F)(F)F)c(C(=O)Nc2cccc([C@@H](CN)NC(=O)c3cc4cc5c(nc4s3)CC[C@@H](C(C)(C)C)C5)c2)c1Cl [Example 246],< 100 nM,–
CC(C)(C)[C@@H]1CCc2nc3sc(C(=O)N[C@H](CN)c4cccc(NC(=O)c5ncc[nH]5)c4)cc3cc2C1 [Example 247],< 100 nM,–
CC(C)(C)[C@@H]1CCc2nc3sc(C(=O)N[C@H](CN)c4cccc(NC(=O)c5c[nH]cn5)c4)cc3cc2C1 [Example 248],< 100 nM,–
Cn1cnc(C(=O)Nc2cccc([C@@H](CN)NC(=O)c3cc4cc5c(nc4s3)CC[C@@H](C(C)(C)C)C5)c2)c1 [Example 249],< 100 nM,–
Cn1ccnc1C(=O)Nc1cccc([C@@H](CN)NC(=O)c2cc3cc4c(nc3s2)CC[C@@H](C(C)(C)C)C4)c1 [Example 250],< 100 nM,19 nM
Cn1cncc1C(=O)Nc1cccc([C@@H](CN)NC(=O)c2cc3cc4c(nc3s2)CC[C@@H](C(C)(C)C)C4)c1 [Example 251],< 100 nM,–
CC(C)(C)[C@@H]1CCc2nc3sc(C(=O)N[C@H](CN)c4cccc(NC(=O)c5ccc[nH]5)c4)cc3cc2C1 [Example 252],< 100 nM,–
CC(C)(C)[C@@H]1CCc2nc3sc(C(=O)N[C@H](CN)c4cccc(NC(=O)c5nsc(Cl)c5Cl)c4)cc3cc2C1 [Example 253A],100 to 1000 nM,–
CC(C)(C)[C@@H]1CCc2nc3sc(C(=O)N[C@H](CN)c4cccc(NC(=O)c5cnn[nH]5)c4)cc3cc2C1 [Example 253],100 to 1000 nM,–
CC(C)(C)[C@@H]1CCc2nc3sc(C(=O)N[C@H](CN)c4cccc(NC(=O)c5nscc5N)c4)cc3cc2C1 [Example 254],100 to 1000 nM,–
CC(C)(C)[C@@H]1CCc2nc3sc(C(=O)N[C@H](CN)c4cccc(NC(=O)c5nsnc5N)c4)cc3cc2C1 [Example 255],< 100 nM,–
CNc1nsnc1C(=O)Nc1cccc([C@@H](CN)NC(=O)c2cc3cc4c(nc3s2)CC[C@@H](C(C)(C)C)C4)c1 [Example 256],< 100 nM,–
CC(C)(C)[C@@H]1CCc2nc3sc(C(=O)N[C@H](CN)c4cccc(NC(=O)c5csnn5)c4)cc3cc2C1 [Example 257],< 100 nM,23 nM
Cc1nnsc1C(=O)Nc1cccc([C@@H](CN)NC(=O)c2cc3cc4c(nc3s2)CC[C@@H](C(C)(C)C)C4)c1 [Example 258],< 100 nM,–
Cc1cnc(C(=O)Nc2cccc([C@@H](CN)NC(=O)c3cc4cc5c(nc4s3)CC[C@@H](C(C)(C)C)C5)c2)cn1 [Example 259],< 100 nM,17 nM
CC(C)(C)[C@@H]1CCc2nc3sc(C(=O)N[C@H](CN)c4cccc(NC(=O)c5cncc(N)n5)c4)cc3cc2C1 [Example 260],< 100 nM,–
CC(C)(C)[C@@H]1CCc2nc3sc(C(=O)N[C@H](CN)c4cccc(NC(=O)c5nccnc5N)c4)cc3cc2C1 [Example 261],< 100 nM,–
"CC(C)(C)[C@@H]1CCc2nc3sc(C(=O)N[C@H](CN)c4cccc(NC(=O)c5ccco5)c4)cc3cc2C1 [Example 262, 6-tert-Butyl-5,6,7,8-tetrahydrothieno[2,3-b]quinoline-2-carboxylic acid (2-amino-1-{3-[(furan-2-carbonyl)amino]phenyl}ethyl)amide]",< 100 nM,–
"CC(C)(C)[C@@H]1CCc2nc3sc(C(=O)N[C@H](CN)c4cccc(NC(=O)c5ncco5)c4)cc3cc2C1 [Example 263, 6-tert-butyl-5,6,7,8-tetrahydrothieno[2,3-b]quinoline-2-carboxylic acid (2-amino-1-{3-[(oxazole-2-carbonyl)amino]phenyl}ethyl)amide]",< 100 nM,–
